Measured values reported in patent US20030224023A1, “Cosmetic compositions with hydroxy amine salts of malonic acid” (Unilever Home & Personal Care USA, Division of Conopco, Inc., priority 2002, published 2003).

Description: This formula contains 8% Glycolic acid or 0.1053 equivalents, neutralized with 2.4% ammonia hydroxide which is 0.0395 equivalents, resulting in a final formula pH of 3.8. The DMAE formula contains 2.58% malonic acid or 0.0496 equivalents, neutralized with 3.20% DMAE which is 0.0358 equivalents, resulting in a final formula pH of 5.5. […] The clinical involved (49) panelists over a six week period. Panelists were required to apply each product to one half of their face. After application, the panelists were required to answer a series of questions regarding relative effectiveness of the products.
The effect of pH was evaluated with another set of panelists numbering (58) persons utilizing a formulation at pH 6.5. In this set, 2.05% or 0.0394 equivalents of Malonic acid was neutralized with 3.17% or 0.0356 equivalents of DMAE resulting in a formula with a pH of 6.5. In this formula the malonic acid was 90.35% neutralized with the DMAE. In both DMAE formulas the lower pKa malonic acid group was totally neutralized, depending on the amount of malonic acid present in each formula. The second higher pKa acid group was partially neutralized with the remaining DMAE equivalents to bring the pH up to the desired value.

Compound: CN(C)CCO.O=C(O)CC(=O)O [DMAE malonate, dimethylaminoethanol (DMAE) malonate]
- improving the general condition of skin (compared with ammonium glycolate): as effective as ammonium glycolate
- irritation (compared with the ammonium glycolate composition): considerably less irritating than the ammonium glycolate composition
